Results reported in patent US10413538B2, “Administration of karenitecin for the treatment of platinum and/or taxane chemotherapy-resistant or -refractory advanced ovarian cancer” (priority 2013, dated 2019).
Entries after “also recorded” stand apart in the source; their conditions may differ.

Experiments:
[1] = Phase I clinical studies of intravenous Karenitecin (safety, dose-limiting toxicity); format: in vivo, human
Method: Results from three Phase I studies indicate that Karenitecin can be safely administered to patients at the dose level of 1.0 mg/m^2/day I.V. over a one hour period of time for 5 consecutive days in a 3-week treatment cycle. […] Any gastrointestinal toxicity is generally ≤grade 2 and is not dose-limiting.
Intravenous administration of Karenitecin has been evaluated in three Phase I clinical studies in patients with the following cancer types: (i) advanced solid tumors (adult patients) (see, e.g., Schilsky, R. L., Hausheer, F. H., et al., Phase I trial of Karenitecin administered intravenously daily for five consecutive days in patients with advanced solid tumors using accelerated dose titration [abstract]. ASCO Abstract 758 (2000)); (ii) refractory or recurrent solid tumors (pediatric patients); and (iii) recurrent malignant glioma (adult patients). […]

[2] = test system: panel of over twenty (20) human cancer cell lines; experiment: In vitro studies on a panel of human cancer cell lines; format: cell-based
advanced ovarian cancer = experiment: Phase II study in advanced ovarian cancer patients who had failed prior treatments; format: in vivo, human
Source text: Intravenous administration of Karenitecin has been evaluated in three Phase I clinical studies in patients with the following cancer types: (i) advanced solid tumors (adult patients) (see, e.g., Schilsky, R. L., Hausheer, F. H., et al., Phase I trial of Karenitecin administered intravenously daily for five consecutive days in patients with advanced solid tumors using accelerated dose titration [abstract]. ASCO Abstract 758 (2000)); (ii) refractory or recurrent solid tumors (pediatric patients); and (iii) recurrent malignant glioma (adult patients). Intravenous administration of Karenitecin has also been evaluated in four Phase 2 clinical studies in adult patients with the following cancer types: (i) primary malignant glioma; (ii) treatment of persistent or recurrent epithelial ovarian or primary peritoneal carcinoma in heavily pre-treated patients; (iii) malignant melanoma (see, e.g., Hausheer, F. H., et al., Phase II trial of Karenitecin (BNP1350) in malignant melanoma: clinical and translational study [abstract]. ASCO Abstract 7554 (2004); and (iv) relapsed or refractory non-small cell lung cancer (see, e.g., Miller, A. A., et al., MR for the Cancer and Leukemia Group B. Phase II trial of Karenitecin in patients with relapsed or refractory advanced non-small cell lung cancer (CALGB 30004) Lung Cancer 48:399-407 (2005)).

[3] = human, in vivo
Method: The Primary Endpoint of the disclosed Phase III clinical study was Progression Free Survival (“PFS”); which was defined as the time period from the date of randomization to the date of first radiographically documented Progressive Disease (“PD”) or date of death due to any cause, taking either event date that occurred first. The date of PD was determined by radiographical objective disease (RECIST) measurement method. The Secondary Endpoints of the disclosed Phase III clinical study included: (i) Overall Survival (hereinafter “OS”), defined as the time from the date of randomization to the date of death due to any cause; (ii) Incidence of anemia, defined as the proportion of patients who experience ≥grade 3 anemia based on National Cancer Institute Common Terminology Criteria for Adverse Events (NCI-CTCAE) criteria at any time post-baseline after receiving study treatment; (iii) Incidence of neutropenia (including febrile neutropenia), defined as the proportion of patients who experience ≥grade 3 neutropenia based on NCI-CTCAE criteria at any time post-baseline after receiving study treatment; and (iv) Incidence of thrombocytopenia, defined as the proportion of patients who experience ≥grade 3 thrombocytopenia based on NCI-CTCAE criteria at any time post-baseline after receiving study treatment.
The primary endpoint was Progression Free Survival (PFS); defined as the time period from the date of randomization to the date of first radiographically documented progressive disease (PD) or date of death due to any cause, taking the event date that occurs first. The date of PD was determined by radiographically objective disease (RECIST) measurement. […]
Simultaneous statistical analyses were performed on the clinical trial data from the time points when 254 and 338 Progression Free Survival (PFS) events occurred during the aforementioned Karenitecin Phase III Trial and the following results were observed. […] The PFS benefit for Karenitecin in comparison to Topotecan was determined using an Independent Review Committee (IRC).

CC[C@@]1(O)C(=O)OCc2c1cc1n(c2=O)Cc2c-1nc1ccccc1c2CC[Si](C)(C)C [Karenitecin, (4S)-4-ethyl-4-hydroxy-11-[2-(trimethylsilyl)ethyl]-1H-pyrano[3′:4′:6,7]indolizino[1,2-b]quinoline-3,14(4H,12H)-dione]
principal and dose-limiting toxicity ([1]; Phase I, 1.0 mg/m^2/day I.V. over one hour, 5 consecutive days, 3-week cycle): non-cumulative, reversible myelosuppression; also recorded: reversible and non-cumulative neutropenia and thrombocytopenia | serious hypersensitivity reactions reported by patients ([1]; patients receiving Karenitecin to date): no serious hypersensitivity reactions | concentrations for inhibiting the growth of human and animal tumor cells in vitro [2]: nanomolar or sub-nanomolar concentrations | antitumor potency compared with Topotecan or SN-38 ([2]; over twenty human cancer cell lines): significantly more potent antitumor agent than either Topotecan or SN-38 | Time to Progression (TTP) compared with historical results reported with Topotecan (advanced ovarian cancer): prolonged Time to Progression (TTP) | Grade 3 or 4 anemia events reduced in comparison to the Topotecan arm ([3]; female, 5 days): 27.3% | Grade 3 or 4 thrombocytopenia events reduced in comparison to the Topotecan arm ([3]; female, 5 days): 37.4% | grade 4 neutropenia reduced in comparison to the Topotecan arm ([3]; female, 5 days): 38.2% | safety concerns as monitored by the independent Data and Safety Monitoring Board (DSMB) [3]: no safety concerns related to Karenitecin were noted
